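These data come from cells grown in 96-well plates and exposed to compound for 48 hours at five concentrations. The concentration for full growth arrest is given as TGI.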
What was measured:
Assay in all cases: DTP human tumour cell line panel, 48 h
SK-OV-3 ovarian = system: SK-OV-3 ovarian
RXF 393 renal = system: RXF 393 renal
HCC-2998 colon = system: HCC-2998 colon
SR leukemia = system: SR leukemia
OVCAR-5 ovarian = system: OVCAR-5 ovarian
SF-268 CNS = system: SF-268 CNS
SNB-19 CNS = system: SNB-19 CNS
IGROV1 ovarian = system: IGROV1 ovarian
SK-MEL-5 melanoma = system: SK-MEL-5 melanoma
NCI-H460 lung = system: NCI-H460 lung
SK-MEL-28 melanoma = system: SK-MEL-28 melanoma
HS 578T breast = system: HS 578T breast
HCT-15 colon = system: HCT-15 colon
HOP-92 NSCLC = system: HOP-92 NSCLC
HT29 colon = system: HT29 colon
UACC-257 melanoma = system: UACC-257 melanoma
HOP-62 NSCLC = system: HOP-62 NSCLC
MCF7 breast = system: MCF7 breast
NCI/ADR-RES ovarian = system: NCI/ADR-RES ovarian
A498 renal = system: A498 renal
CCRF-CEM leukemia = system: CCRF-CEM leukemia
EKVX NSCLC = system: EKVX NSCLC
MDA-MB-435 = system: MDA-MB-435
UACC-62 melanoma = system: UACC-62 melanoma
HL-60(TB) leukemia = system: HL-60(TB) leukemia
SF-295 CNS = system: SF-295 CNS
KM12 colon = system: KM12 colon
M14 melanoma = system: M14 melanoma
SW-620 colon = system: SW-620 colon
OVCAR-8 ovarian = system: OVCAR-8 ovarian
SN12C renal = system: SN12C renal
NCI-H522 lung = system: NCI-H522 lung
RPMI-8226 leukemia = system: RPMI-8226 leukemia
PC-3 prostate = system: PC-3 prostate
LOX IMVI melanoma = system: LOX IMVI melanoma
OVCAR-4 ovarian = system: OVCAR-4 ovarian
SF-539 CNS = system: SF-539 CNS
TK-10 renal = system: TK-10 renal
DU-145 prostate = system: DU-145 prostate
SNB-75 CNS = system: SNB-75 CNS
786-0 renal = system: 786-0 renal
NCI-H23 lung = system: NCI-H23 lung
MDA-N = system: MDA-N
SK-MEL-2 melanoma = system: SK-MEL-2 melanoma
K-562 leukemia = system: K-562 leukemia
T-47D breast = system: T-47D breast
BT-549 breast = system: BT-549 breast
OVCAR-3 ovarian = system: OVCAR-3 ovarian
HCT-116 colon = system: HCT-116 colon
NCI-H226 lung = system: NCI-H226 lung
A549 NSCLC = system: A549 NSCLC
ACHN renal = system: ACHN renal
CAKI-1 renal = system: CAKI-1 renal
UO-31 renal = system: UO-31 renal
U251 CNS = system: U251 CNS
MALME-3M melanoma = system: MALME-3M melanoma
COLO 205 colon = system: COLO 205 colon
MDA-MB-231 breast = system: MDA-MB-231 breast
MOLT-4 leukemia = system: MOLT-4 leukemia
SNB-78 CNS = system: SNB-78 CNS
DLD-1 colon = system: DLD-1 colon
DMS 114 small cell lung = system: DMS 114 small cell lung
XF 498 CNS = system: XF 498 CNS
HOP-18 NSCLC = system: HOP-18 NSCLC
KM20L2 colon = system: KM20L2 colon
M19-MEL melanoma = system: M19-MEL melanoma
DMS 273 small cell lung = system: DMS 273 small cell lung

Question: For `C=C(CC)C(=O)c1ccc(OCC(=O)O)c(Cl)c1Cl`, which TGI (SK-OV-3 ovarian) is on record?
Answer: > 100 µM

Question: What about the TGI (RXF 393 renal) of the same compound?
Answer: 34.2 µM

Question: What about the TGI (HCC-2998 colon) of the same compound?
Answer: 35.4 µM

Question: And the TGI (SR leukemia)?
Answer: > 100 µM

Question: And the TGI (OVCAR-5 ovarian)?
Answer: > 62.6 µM

Question: And the TGI (SF-268 CNS)?
Answer: 33.1 µM

Question: What about the TGI (SNB-19 CNS) of the same compound?
Answer: 31.3 µM

Question: What about the TGI (IGROV1 ovarian) of the same compound?
Answer: 47.5 µM

Question: What about the TGI (SK-MEL-5 melanoma) of the same compound?
Answer: > 55.7 µM

Question: And the TGI (NCI-H460 lung)?
Answer: > 69.9 µM

Question: And the TGI (SK-MEL-28 melanoma)?
Answer: 33.6 µM

Question: What about the TGI (HS 578T breast) of the same compound?
Answer: 45.9 µM

Question: And the TGI (HCT-15 colon)?
Answer: 58.8 µM

Question: And the TGI (HOP-92 NSCLC)?
Answer: 25.2 µM

Question: And the TGI (HT29 colon)?
Answer: 36.3 µM

Question: What about the TGI (UACC-257 melanoma) of the same compound?
Answer: 55.4 µM

Question: And the TGI (HOP-62 NSCLC)?
Answer: > 56 µM

Question: What about the TGI (MCF7 breast) of the same compound?
Answer: 20.8 µM

Question: And the TGI (NCI/ADR-RES ovarian)?
Answer: > 61.9 µM

Question: And the TGI (A498 renal)?
Answer: > 100 µM

Question: And the TGI (CCRF-CEM leukemia)?
Answer: > 76.3 µM

Question: What about the TGI (EKVX NSCLC) of the same compound?
Answer: 38.3 µM

Question: What about the TGI (MDA-MB-435) of the same compound?
Answer: 32.3 µM

Question: And the TGI (UACC-62 melanoma)?
Answer: 30.3 µM

Question: What about the TGI (HL-60(TB) leukemia) of the same compound?
Answer: > 85 µM

Question: What about the TGI (SF-295 CNS) of the same compound?
Answer: > 100 µM

Question: What about the TGI (KM12 colon) of the same compound?
Answer: 21.4 µM

Question: What about the TGI (M14 melanoma) of the same compound?
Answer: 45 µM

Question: And the TGI (SW-620 colon)?
Answer: 34.2 µM

Question: And the TGI (OVCAR-8 ovarian)?
Answer: 37.2 µM

Question: What about the TGI (SN12C renal) of the same compound?
Answer: 47.5 µM

Question: What about the TGI (NCI-H522 lung) of the same compound?
Answer: 29.6 µM

Question: What about the TGI (RPMI-8226 leukemia) of the same compound?
Answer: > 100 µM

Question: And the TGI (PC-3 prostate)?
Answer: > 81.8 µM

Question: What about the TGI (LOX IMVI melanoma) of the same compound?
Answer: 29.7 µM

Question: What about the TGI (OVCAR-4 ovarian) of the same compound?
Answer: 43.6 µM

Question: What about the TGI (SF-539 CNS) of the same compound?
Answer: 24.4 µM

Question: What about the TGI (TK-10 renal) of the same compound?
Answer: 30.2 µM

Question: What about the TGI (DU-145 prostate) of the same compound?
Answer: > 73.2 µM

Question: And the TGI (SNB-75 CNS)?
Answer: 50 µM

Question: What about the TGI (786-0 renal) of the same compound?
Answer: 19.7 µM

Question: And the TGI (NCI-H23 lung)?
Answer: > 56.2 µM

Question: And the TGI (MDA-N)?
Answer: > 55.2 µM

Question: What about the TGI (SK-MEL-2 melanoma) of the same compound?
Answer: 33.2 µM

Question: What about the TGI (K-562 leukemia) of the same compound?
Answer: > 100 µM

Question: And the TGI (T-47D breast)?
Answer: 27.6 µM

Question: What about the TGI (BT-549 breast) of the same compound?
Answer: 17.2 µM

Question: What about the TGI (OVCAR-3 ovarian) of the same compound?
Answer: 30.1 µM

Question: And the TGI (HCT-116 colon)?
Answer: > 55.1 µM

Question: What about the TGI (NCI-H226 lung) of the same compound?
Answer: 45.8 µM

Question: What about the TGI (A549 NSCLC) of the same compound?
Answer: > 100 µM

Question: What about the TGI (ACHN renal) of the same compound?
Answer: > 72.9 µM

Question: And the TGI (CAKI-1 renal)?
Answer: 28.1 µM

Question: And the TGI (UO-31 renal)?
Answer: 34.3 µM

Question: What about the TGI (U251 CNS) of the same compound?
Answer: 29.7 µM

Question: And the TGI (MALME-3M melanoma)?
Answer: 31.7 µM

Question: And the TGI (COLO 205 colon)?
Answer: 33.1 µM

Question: And the TGI (MDA-MB-231 breast)?
Answer: 34.6 µM

Question: And the TGI (MOLT-4 leukemia)?
Answer: > 62.2 µM

Question: With `O=C1CCC2(c3ccccc3)OCC([C@@H](O)c3ccccc3)N12` (stereo partly drawn) as the compound, how does the TGI (SNB-78 CNS) read?
Answer: > 100 µM

Question: What about the TGI (RXF 393 renal) of the same compound?
Answer: > 100 µM

Question: What about the TGI (SR leukemia) of the same compound?
Answer: > 100 µM

Question: And the TGI (OVCAR-5 ovarian)?
Answer: > 100 µM

Question: And the TGI (SF-268 CNS)?
Answer: > 100 µM

Question: What about the TGI (SNB-19 CNS) of the same compound?
Answer: > 100 µM

Question: And the TGI (IGROV1 ovarian)?
Answer: > 100 µM

Question: And the TGI (SK-MEL-5 melanoma)?
Answer: > 100 µM

Question: What about the TGI (NCI-H460 lung) of the same compound?
Answer: > 100 µM

Question: And the TGI (SK-MEL-28 melanoma)?
Answer: > 100 µM

Question: What about the TGI (HCT-15 colon) of the same compound?
Answer: > 100 µM

Question: What about the TGI (DLD-1 colon) of the same compound?
Answer: > 100 µM

Question: What about the TGI (HOP-92 NSCLC) of the same compound?
Answer: > 100 µM

Question: What about the TGI (HT29 colon) of the same compound?
Answer: > 100 µM

Question: What about the TGI (UACC-257 melanoma) of the same compound?
Answer: > 100 µM

Question: What about the TGI (HOP-62 NSCLC) of the same compound?
Answer: > 100 µM

Question: And the TGI (A498 renal)?
Answer: > 100 µM

Question: And the TGI (CCRF-CEM leukemia)?
Answer: > 100 µM

Question: And the TGI (EKVX NSCLC)?
Answer: > 100 µM

Question: And the TGI (UACC-62 melanoma)?
Answer: > 100 µM

Question: And the TGI (SF-295 CNS)?
Answer: > 100 µM

Question: What about the TGI (KM12 colon) of the same compound?
Answer: > 100 µM

Question: And the TGI (DMS 114 small cell lung)?
Answer: > 100 µM

Question: And the TGI (SW-620 colon)?
Answer: > 100 µM

Question: What about the TGI (XF 498 CNS) of the same compound?
Answer: > 100 µM

Question: And the TGI (OVCAR-8 ovarian)?
Answer: > 100 µM

Question: And the TGI (SN12C renal)?
Answer: > 100 µM

Question: And the TGI (RPMI-8226 leukemia)?
Answer: > 100 µM

Question: And the TGI (LOX IMVI melanoma)?
Answer: > 100 µM

Question: And the TGI (OVCAR-4 ovarian)?
Answer: > 100 µM

Question: And the TGI (SF-539 CNS)?
Answer: > 100 µM

Question: What about the TGI (TK-10 renal) of the same compound?
Answer: > 100 µM

Question: What about the TGI (HOP-18 NSCLC) of the same compound?
Answer: > 100 µM

Question: And the TGI (SNB-75 CNS)?
Answer: > 100 µM

Question: What about the TGI (786-0 renal) of the same compound?
Answer: > 100 µM

Question: What about the TGI (KM20L2 colon) of the same compound?
Answer: > 100 µM

Question: What about the TGI (NCI-H23 lung) of the same compound?
Answer: > 100 µM

Question: What about the TGI (M19-MEL melanoma) of the same compound?
Answer: > 100 µM

Question: What about the TGI (SK-MEL-2 melanoma) of the same compound?
Answer: > 100 µM

Question: And the TGI (K-562 leukemia)?
Answer: > 100 µM

Question: And the TGI (OVCAR-3 ovarian)?
Answer: > 100 µM

Question: And the TGI (DMS 273 small cell lung)?
Answer: > 100 µM

Question: What about the TGI (HCT-116 colon) of the same compound?
Answer: > 100 µM

Question: And the TGI (A549 NSCLC)?
Answer: > 100 µM

Question: What about the TGI (ACHN renal) of the same compound?
Answer: > 100 µM

Question: And the TGI (CAKI-1 renal)?
Answer: > 100 µM

Question: And the TGI (U251 CNS)?
Answer: > 100 µM

Question: And the TGI (MALME-3M melanoma)?
Answer: > 100 µM

Question: And the TGI (COLO 205 colon)?
Answer: > 100 µM
